# Measured values reported in patent US20250032623A1, “HETEROBIFUNCTIONAL COMPOUNDS AND THEIR USE IN TREATING DISEASE” (HALDA THERAPEUTICS OPCO, INC., priority 2021, published 2025).
# Like-named read-outs stand apart in the source and are kept apart here.
# Columns and labels:
# HEK293 cells = assay: Cellular growth inhibition assay (CellTiter-Glo), HEK293 cells; type: cell-based; settings: three days compound treatment, CellTiter-Glo 2.0, read-out: CTG HEK293 GI50
# Method: (§1) Exemplary compounds were tested for ability to inhibit the proliferation of HEK293 cells or HeLa cells.
# (§2) HEK293 and HeLa cells were cultured in DMEM medium supplemented with 10% fetal bovine serum and 1% Penn/Strep. Cells were seeded in white 384-well plates at 500 cells/well in […] complete medium. Following seeding, plates were spun at 300×g for three minutes and cultured at 37° C. with 5% CO2 in a humidified tissue culture incubator.
# (§3) After 24 hours, compounds were titrated in 100% DMSO and diluted in complete cell culture medium. […] of compound/media mixture was added to cells to bring total volume in well to […]. DMSO alone was used as a negative control. P lates were then spun at 300×g for three minutes and stored at 37° C. with 5% CO2 for three days.
# (§4) On Day 0 and Day 3 of compound treatment, cell viability was quantified with CellTiter-Glo 2.0 reagent (Promega). After equilibrating microplates at room temperature for 30 minutes, 25 μL CellTiter-Glo 2.0 reagent was dispensed into each well to bring total volume to […]. Plates were mixed on shaker for 2 minutes at 500 rpm, followed by a 10-minute incubation at room temperature. Following a quick spin, luminescence readings were measured with an EnVision Plate Reader. Data was normalized to DMSO treated Day 0 and Day 3 readings. A four-parameter non-linear regression curve fit was applied to dose-response data in GraphPad Prism data analysis software to determine the half maximal growth inhibitory concentration (GI50) for each compound.
# HeLa cells = assay: Cellular growth inhibition assay (CellTiter-Glo), HeLa cells; type: cell-based; settings: three days compound treatment, CellTiter-Glo 2.0, read-out: CTG HELA GI50
# Method: as §1, §2, §3, §4
Compound,"GI50 (HEK293 cells; Homo sapiens, 72 h) [µM]","GI50 (HeLa cells; Homo sapiens, 72 h) [µM]",GI50 (HeLa cells) [µM],GI50 (HEK293 cells) [µM]
"C=CC(=O)NC1CN(c2nc(Nc3cn(CCOCCOCCOCCOCCOCCOCCNC(=O)c4ccc(Nc5ncc6c(n5)N(C5CCCC5)[C@H](CC)C(=O)N6C)c(OC)c4)nc3OC)c3ncn(C)c3n2)C[C@H]1F (stereo partly drawn) [Compound I-114, 4-[[(7R)-8-cyclopentyl-7-ethyl-5-methyl-6-oxo-7H-pteridin-2-yl]amino]-N-[2-[2-[2-[2-[2-[2-[2-[4-[[2-[(3R)-3-fluoro-4-(prop-2-enoylamino)pyrrolidin-1-yl]-9-methyl-purin-6-yl]amino]-3-methoxy-pyrazol-1-yl]ethoxy]ethoxy]ethoxy]ethoxy]ethoxy]ethoxy]ethyl]-3-methoxy-benzamide]",1.5 to 5,,,
"C=CC(=O)N[C@@H]1CN(c2nc(Nc3cn(CCOCCOCCOCCOCCOc4ccc(CNc5cc(N6CCCC[C@H]6CCO)nc6c(CC)cnn56)cn4)nc3OC)c3ncn(C)c3n2)C[C@H]1F [Compound I-145, N-[(3R,4R)-1-[6-[[1-[2-[2-[2-[2-[2-[[5-[[[3-ethyl-5-[(2S)-2-(2-hydroxyethyl)-1-piperidyl]pyrazolo[1,5-a]pyrimidin-7-yl]amino]methyl]-2-pyridyl]oxy]ethoxy]ethoxy]ethoxy]ethoxy]ethyl]-3-methoxy-pyrazol-4-yl]amino]-9-methyl-purin-2-yl]-4-fluoro-pyrrolidin-3-yl]prop-2-enamide]",< 0.5,< 0.5,,
"C=CC(=O)N[C@@H]1CN(c2nc(Nc3cn(CCOCCOCCNS(=O)(=O)c4ccc(Nc5ncc(Br)c(Nc6cccc(F)c6C(N)=O)n5)cc4)nc3OC)c3ncn(C)c3n2)C[C@H]1F [Compound I-142, 2-[[5-bromo-2-[4-[2-[2-[2-[4-[[2-1[(3R,4R)-3-fluoro-4-(prop-2-enoylamino)pyrrolidin-1-yl]-9-methyl-purin-6-yl]amino]-3-methoxy-pyrazol-1-yl]ethoxy]ethoxy]ethylsulfamoyl]anilino]pyrimidin-4-yl]amino]-6-fluoro-benzamide]",,,1.5 to 5,> 5
"CC[C@@H]1C(=O)N(C)c2cnc(Nc3ccc(C(=O)NCCN(C)C/C=C/C(=O)NC4CN(c5nc(Nc6cn(C)nc6OC)c6ncn(C)c6n5)C[C@H]4F)cc3OC)nc2N1C1CCCC1 (stereo partly drawn) [Compound I-119, 4-[l[(7R)-8-cyclopentyl-7-ethyl-5-methyl-6-oxo-7H-pteridin-2-yl]amino]-N—[2-[ [(E)-4-[ [(3R,4R)-4-fluoro-1-[6-[(3-methoxy-1-methyl-pyrazol-4-yl)amino]-9-methyl-purin-2-yl]pyrrolidin-3-yl]amino]-4-oxo-but-2-enyl]-methyl-amino]ethyl]-3-methoxy-benzamide]",1.5 to 5,,,
"C=CC(=O)N[C@@H]1CN(c2nc(Nc3cn(CCOCCOCCOc4ccc(CNc5cc(N6CCCC[C@H]6CCO)nc6c(CC)cnn56)cn4)nc3OC)c3ncn(C)c3n2)C[C@H]1F [Compound I-144, N-[(3R,4R)-1-[6-[[1-[2-[2-[2-[[5-1[[[3-ethyl-5-[(2S)-2-(2-hydroxyethyl)-1-piperidyl]pyrazolo[1,5-a]pyrimidin-7-yl]amino]methyl]-2-pyridyl]oxy]ethoxy]ethoxy]ethyl]-3-methoxy-pyrazol-4-yl]amino]-9-methyl-purin-2-yl]-4-fluoro-pyrrolidin-3-yl]prop-2-enamide]",,,< 0.5,< 0.5
"CC[C@@H]1C(=O)N(C)c2cnc(Nc3ccc(C(=O)NCCN(C)C/C=C/C(=O)Nc4cc(Nc5nccc(-c6cn(C)c7ccccc67)n5)c(OC)cc4N(C)CCN(C)C)cc3OC)nc2N1C1CCCC1 [Compound I-116, 4-[[(7R)-8-cyclopentyl-7-ethyl-5-methyl-6-oxo-7H-pteridin-2-yl]amino]-N-[2-[[(E)-4-1[2-[2-(dimethylamino)ethyl-methyl-amino]-4-methoxy-5-[[4-(1-methylindol-3-yl)pyrimidin-2-yl]amino]anilino]-4-oxo-but-2-enyl]-methyl-amino]ethyl]-3-methoxy-benzamide]",1.5 to 5,,,
